The values below come from patent US6043385A, “Vitamin D derivatives” (priority 1997, dated 2000).

Data set [1] can be described thus: Calcium liability (tolerance test in mice). Conditions: mouse, in vivo, sc, daily s.c. for 4 consecutive days, dose without weight loss / with zero weight gain, read-out: HTD sc, mouse (highest tolerated subcutaneous dose). The text has this:
1. Calcium liability (tolerance test in mice):
This test gives a global picture of calcemic liability. Profound changes in calcium homeostasis strongly affect the weight development of the animals. This parameter was used as a primary test for tolerance. Mice (25-30 g body weight) received daily subcutaneous administrations of the vitamin D derivative for 4 consecutive days. Body weight was registered just before and at the end of a […] treatment period. The "highest tolerated dose" (HTDsc) in mice is the dose which results in zero weight gain during this treatment period.
HTDsc: highest tolerated subcutaneous dose (μg/kg) without weight loss

For another data set, the target named is T1, human VDR (Homo sapiens, UniProt P11473).
T1 construct: expressed in transfected cells; host or cells: COS cells, human VDR in pSG5
T1 sequence (P11473 1-427): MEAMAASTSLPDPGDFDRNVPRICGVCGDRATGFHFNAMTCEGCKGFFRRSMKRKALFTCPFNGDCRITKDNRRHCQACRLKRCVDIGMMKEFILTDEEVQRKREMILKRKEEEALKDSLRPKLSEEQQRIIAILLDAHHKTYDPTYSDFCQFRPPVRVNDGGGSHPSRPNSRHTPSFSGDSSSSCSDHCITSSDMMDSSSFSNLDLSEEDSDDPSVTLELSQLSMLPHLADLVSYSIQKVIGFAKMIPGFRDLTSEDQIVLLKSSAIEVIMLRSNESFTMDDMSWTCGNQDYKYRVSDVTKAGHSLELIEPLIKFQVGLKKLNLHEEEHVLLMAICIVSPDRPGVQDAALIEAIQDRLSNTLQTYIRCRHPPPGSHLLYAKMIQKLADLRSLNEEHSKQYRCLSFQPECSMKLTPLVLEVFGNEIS
The experiment in a line: Vitamin D receptor activation (VDR), transcription activation assay in COS cells. The data set is classed as cell-based. The following applies: for pEC50: COS cells cotransfected with human VDR and VDRE3-luciferase reporter, read-out: VDR act. (ED50, nanomolar); for HTD/VDR: ratio HTDsc (mouse, μg/kg) / VDR ED50 (nanomolar); for TI shift (HTD/VDR of test compound divided by HTD/VDR of calcitriol): vs calcitriol. The text has this:
2. Vitamin D receptor activation (VDR)
In order to measure the activation of the vitamin D receptor (VDR) by vitamin D analogs in cells a transcription activation assay was used. COS cells were cotransfected with the human VDR (expressed in pSG5) and a reporter gene containing three response elements (VDRE3) from the rat osteocalcine gene, the thymidine kinase basal promoter, and the luciferase reporter gene, respectively.
TI shift: shift in "therapeutic index", defined as the ratio HTD/VDR of
the test compound divided by the ratio HTD/VDR of calcitriol. These
A general note: A reporter such as luciferase makes a cellular process visible.

The subject of data set [2] is Epidermal proliferation in minipigs. Description: The pig model: epidermal proliferation in minipigs. The following applies: for TI (ratio Calc./Eff.): calcemic dose / effective dose, 10080 min; for Calcemic dose / Effective dose: seven days; for Effective dose: dose that increases the normal LI at least 50%.
Data set [3] can be described thus: The mouse model: epidermal thickening (acanthosis) in hairless mice. Conditions: mouse, in vivo, po.
The subject of data set [4] is Epidermal thickening (acanthosis) in hairless mice. Described as above. Conditions: for ED50: Mus musculus, po, read-out: ED50: dose causing halfmaximal epidermal thickening; for ratio (TI) HTD/ED50 / TI shift (HTD/ED50 of test compound divided by HTD/ED50 of calcitriol): hairless mice, oral; for ratio (TI) HTD/ED50: HTDpo/ED50; for TI shift (HTD/ED50 of test compound divided by HTD/ED50 of calcitriol): vs calcitriol.

What is called ED50 is the dose at which the effect has come halfway, by size or by number of responders.

pEC50: −log10 of the molar value.

`C=C1/C(=C\C=C2/CCC[C@]3(C)[C@@H]([C@H](C)CNC(=O)CC(C)(O)C(F)(F)F)CC[C@@H]23)C[C@@H](O)C[C@@H]1O` (mixture of isomers) [D, 1:1 Mixture of [(5Z,7E)--(R)-- and (S)--N--[(1S,3R,20S)-1,3-dihydroxy-20-methyl-9,10-seco-pregna-5,7,10(19)-trien-21-yl]-4,4,4-trifluoro-3-hydroxy-3-methyl-butyramide]: in data set [1], the MTD turned out to be 10 µg/kg. In addition, on human VDR, the pEC50 was 8.80, the HTD/VDR came to 6.3 and the “TI shift (HTD/VDR of test compound divided by HTD/VDR of calcitriol)” value is recorded as 33.
In the same order, the values of `C=C1/C(=C/C=C2\CCC[C@]3(C)[C@@H]([C@H](C)CNC(=O)CC(C)(O)C(F)(F)F)CC[C@@H]23)C[C@@H](O)C[C@@H]1O` (mixture of isomers) [I, 1:1 Mixture of --[(5E,7E)--(R)-- and --(S)-4,4,4-trifluoro-3-hydroxy-N--[(1S,3R,20S)-1,3-dihydroxy-20-methyl-9,10-seco-pregna-5,7,10(19)-trien-21-yl]-3-methyl-butyramide] are 130 µg/kg, 7.40, 3.3 and 17.
Consider `C[C@H](CNC(=O)CC(C)(O)C(F)(F)F)[C@H]1CC[C@H]2/C(=C/C=C3C[C@@H](O)C[C@H](O)C3)CCC[C@]12C` (mixture of isomers) [compound B, 1:1 Mixture of (E)--(R)-- and (S)--N--[(1R,3R,20S)-1,3-dihydroxy-20-methyl-19-nor-9,10-seco-pregna-5,7-dien-21-yl]-4,4,4-trifluoro-3-hydroxy-20-methyl-butyramide], for which the MTD in data set [1] stood at 45 µg/kg. Also, on human VDR, the pEC50 is 8.77, the HTD/VDR was 26.5 and the “TI shift (HTD/VDR of test compound divided by HTD/VDR of calcitriol)” value is 139. In data set [2], the “TI (ratio Calc./Eff.)” value was 10, the Calcemic dose is 5 µg/kg and the Effective dose worked out at 0.5 µg/kg. This compound also registered an MTD in data set [3] of 20 µg/kg. In data set [4], the ED50 worked out at 80 µg/kg, the “ratio (TI) HTD/ED50” value was 0.25 and the “TI shift (HTD/ED50 of test compound divided by HTD/ED50 of calcitriol)” value was 125.
Take `C[C@@H](CNC(=O)CC(C)(O)C(F)(F)F)[C@H]1CC[C@H]2/C(=C/C=C3C[C@@H](O)C[C@H](O)C3)CCC[C@]12C` (mixture of isomers) [compound E, 1:1 Mixture of (E)--(R)-- and (S)--N--[(1R,3R,20R)-1,3-dihydroxy-20-methyl-19-nor-9,10-seco-pregna-5,7-dien-21-yl]-4,4,4-trifluoro-3-hydroxy-3-methyl-butyramide]: the MTD in data set [1] was 1 µg/kg. Further, on human VDR, the pEC50 is 9.46, the HTD/VDR was found to be 2.9 and the “TI shift (HTD/VDR of test compound divided by HTD/VDR of calcitriol)” value is given as 15.
On to `C[C@H](CNC(=O)CC(O)(C(F)(F)F)C(F)(F)F)[C@H]1CC[C@H]2/C(=C/C=C3C[C@@H](O)C[C@H](O)C3)CCC[C@]12C` [A, (E)--(1R,3R,20S)--N-(1,3-Dihydroxy-20-methyl-19-nor-9,10-seco-pregna-5,7-dien-21-yl)-4,4,4-trifluoro-3-hydroxy-3-trifluoromethyl-butyramide], for which, in data set [1], the MTD came to 3 µg/kg. In addition, at human VDR, the pEC50 was 9.33, the HTD/VDR came to 6.4 and the “TI shift (HTD/VDR of test compound divided by HTD/VDR of calcitriol)” value was determined as 34.
Turning to `C[C@H](CNC(=O)C(C)(C)O)[C@H]1CC[C@H]2/C(=C/C=C3C[C@@H](O)C[C@H](O)C3)CCC[C@]12C` [C, (E)--(1R,3R,20S)--N-(1,3-Dihydroxy-20-methyl-19-nor-9,10-seco-pregna-5,7-dien-21-yl)-2-hydroxy-2-methyl-propionamide], the MTD in data set [1] came to 400 µg/kg. On human VDR, the pEC50 is 8.19, the HTD/VDR is 62.5 and the “TI shift (HTD/VDR of test compound divided by HTD/VDR of calcitriol)” value was 329.
With `C=C1/C(=C\C=C2/CCC[C@]3(C)[C@@H]([C@H](C)CCCC(C)(C)O)CC[C@@H]23)C[C@@H](O)C[C@@H]1O` [Calcitriol, reference compound], in data set [2], the Calcemic dose was 3 µg/kg and the Effective dose is more than 22.5 µg/kg. Moreover, the “hyperproliferation (in words)” value in data set [2] (up to 9 times the dose that induces hypercalcemia) is “did not induce hyperproliferation even at highly toxic does (9 times the dose that induces hypercalcemia)”. Besides, the MTD in data set [3] was determined as 1 µg/kg. In addition, the ED50 in data set [4] came out at 500 µg/kg.
Regarding `C[C@H](CNC(=O)C[C@@](C)(O)C(F)(F)F)[C@H]1CCC[C@H]2/C(=C/C=C3C[C@@H](O)C[C@H](O)C3)CCC[C@]12C` [F, (E)--(R)--N--[(1R,3R,20S)-1,3-Dihydroxy-17a,20a-dihomo-19-nor-9,10-seco-pregna-5,7-dien-21-yl]-4,4,4-trifluoro-3-hydroxy-3-methyl-butyramide], the MTD in data set [1] was determined as 5 µg/kg. In addition, on human VDR, the pEC50 is 9.22, the HTD/VDR was 8.3 and the “TI shift (HTD/VDR of test compound divided by HTD/VDR of calcitriol)” value came out at 44.
With `C[C@H](CNC(=O)C[C@](C)(O)C(F)(F)F)[C@H]1CCC[C@H]2/C(=C/C=C3C[C@@H](O)C[C@H](O)C3)CCC[C@]12C` [G, (E)--(S)--N--[(1R,3R,20S)-1,3-Dihydroxy-17a,20a-dihomo-19-nor-9,10-seco-pregna-5,7-dien-21-yl]-4,4,4-trifluoro-3-hydroxy-3-methyl-butyramide], the MTD in data set [1] was 4.5 µg/kg. On human VDR, the pEC50 was 9.74, the HTD/VDR was 25 and the “TI shift (HTD/VDR of test compound divided by HTD/VDR of calcitriol)” value stood at 132.
Consider `C[C@H](CNC(=O)CC(O)(C(F)(F)F)C(F)(F)F)[C@H]1CCC[C@H]2/C(=C/C=C3C[C@@H](O)C[C@H](O)C3)CCC[C@]12C` [H, (E)--N--[(1R,3R,20S)-1,3-Dihydroxy-17a,20a-dihomo-19-nor-9,10-seco-pregna-5,7-dien-21-yl]-4,4,4-trifluoro-3-trifluoromethyl-3-hydroxy-butyramide], for which, in data set [1], the MTD was 2.3 µg/kg. Also, on human VDR, the pEC50 is 9.30, the HTD/VDR was 4.6 and the “TI shift (HTD/VDR of test compound divided by HTD/VDR of calcitriol)” value came to 24.
As for `C[C@H](CNC(=O)C[C@@](C)(O)C(F)(F)F)[C@H]1CC[C@H]2/C(=C/C=C3C[C@@H](O)C[C@H](O)C3)CCC[C@]12C` [compound J, E--(R)--N--[(1R,3R,20S)-1,3-Dihydroxy-20-methyl-19-nor-9,10-seco-pregna-5,7-dien-21-yl]-4,4,4-trifluoro-3-hydroxy-3-methyl-butyramide], the MTD in data set [1] was found to be 22 µg/kg. Besides, on human VDR, the pEC50 is 8.68, the HTD/VDR was found to be 10.5 and the “TI shift (HTD/VDR of test compound divided by HTD/VDR of calcitriol)” value is recorded as 55. Besides, in data set [2], the “TI (ratio Calc./Eff.)” value is 29, the Calcemic dose is 5 µg/kg and the Effective dose is 0.17 µg/kg. For the same compound, the MTD in data set [3] worked out at 8 µg/kg. In addition, in data set [4], the 50% effective dose (ED50) turned out to be 50 µg/kg, the “ratio (TI) HTD/ED50” value is 0.16 and the “TI shift (HTD/ED50 of test compound divided by HTD/ED50 of calcitriol)” value amounted to 80.
